Results on two molecules are retold here after patent US20110144303A1, “Biologically Active Peptidomimetic Macrocycles” (AILERON Therapeutics, Inc., priority 2008, published 2011).

For data set [1], the target named is GST-Bcl-2. The data set is described as follows: Kd. How it is done:
Table printed on a drawing sheet, Figure 5
The patent's description of the figure: FIG. 5 depicts binding properties to GST-Bcl-2 of SP-4 and SP-54 peptidomimetic macrocycles.
First copying reader's note: Kd values belong to the plot beside the table, titled 'Saturation Binding Curves vs. 2 µM Receptor, 1x PBS + 5 mM CHAPS, 2.5% DMSO', with GST-Bcl-2 as the receptor.
Where the first naming reader finds the target: description_of_the_figure: FIG. 5 depicts binding properties to GST-Bcl-2 of SP-4 and SP-54 peptidomimetic macrocycles.

The next data set addresses GST-Mcl-1. The data set is described as follows: Kd. On the procedure: Table printed on a drawing sheet, Figure 4
The patent's description of the figure: FIG. 4 depicts binding properties to GST-Mcl-1 of SP-4 and SP-54 peptidomimetic macrocycles.
First copying reader's note: Kd values belong to the adjacent saturation binding plot (stapled peptides + GST-Mcl-1, 2 µM receptor, 1x PBS + 5 mM CHAPS, 2.5% DMSO).
Where the first naming reader finds the target: description_of_the_figure: FIG. 4 depicts binding properties to GST-Mcl-1 of SP-4 and SP-54 peptidomimetic macrocycles.

Data set [2] can be described thus: Pharmacokinetics of SP-4 and SP-54 in Rats following IV dose. From the text: Table printed on a drawing sheet, Figure 19
Title: Pharmacokinetics of SP-4 and SP-54 in Rats following IV dose
The patent's description of the figure: FIG. 19 illustrates the pharmacokinetic properties of SP-4 and SP-54 peptidomimetic macrocycles in rats.
First reader's note: Pharmacokinetic parameters in rats after IV dosing; the table is printed under a concentration-time plot that is not copied.

Another data set concerns the target T1, Bcl-xL (Homo sapiens, UniProt Q07817).
T1 construct: GST
The data set is described as follows: Protein-ligand binding experiment for Bcl-xL (SEC-LC-MS affinity selection). The note with it: 1 μM SP-4 and 5 μM Bcl-xL in PBS, 2.5% DMSO, 60 min at room temperature. How it is done:
Protein-ligand binding experiments for Bcl-xL. Simple protein-ligand binding experiments were conducted using the following representative procedure outlined for a simple system-wide control experiment using 1 μM SP-4 and 5 μM Bcl-xL. A 1 μL DMSO aliquot of a 40 μM stock solution of SP-4 is dissolved in 19 μL of PBS (Phosphate-buffered saline: 50 mM, pH 7.5 Phosphate buffer containing 150 mM NaCl). The resulting solution is mixed by repeated pipetting and clarified by centrifugation at 10 000 g for 10 min. To a 4 μL aliquot of the resulting supernatant is added 4 μL of 10 μM BCL-xL in PBS. Each 8.0 μL experimental sample thus contains 40 pmol (1.5 μg) of protein at 5.0 μM concentration in PBS plus 1 μM SP-4 and 2.5% DMSO. Duplicate samples thus prepared for each concentration point are incubated for 60 min at room temperature, and then chilled to 4° C. prior to size-exclusion chromatography-LC-MS analysis of 5.0 μL injections. Samples containing a target protein, protein-ligand complexes, and unbound compounds are injected onto an SEC column, where the complexes are separated from non-binding component by a rapid SEC step. The SEC column eluate is monitored using UV detectors to confirm that the early-eluting protein fraction, which elutes in the void volume of the SEC column, is well resolved from unbound components that are retained on the column. […]

A short description of data set [3]: Pepsin Stability: (E/S 1:50). From the text:
Table printed on a drawing sheet, Figure 12
Title: Pepsin Stability: (E/S 1:50)
The patent's description of the figure: FIG. 12 describes the comparative pepsin stability of SP-1 and SP-35 peptidomimetic macrocycles of the invention.
First reader's note: The title is printed over the plot below the table; the rate constants and half-lives describe degradation by pepsin, and the time points used are on the plot's Time (min) axis.

The nature of data set [4]: Pharmacokinetics of SP-1 and SP-35 in Rat following IV dose. From the text:
Table printed on a drawing sheet, Figure 18
Title: Pharmacokinetics of SP-1 and SP-35 in Rat following IV dose
The patent's description of the figure: FIG. 18 illustrates the pharmacokinetic properties of SP-1 and SP-35 peptidomimetic macrocycles in rats.
First reader's note: The title stands over the plot above the table and applies to both: rat, IV dose.

The next data set has as its target T2, GST-Bcl-XL (Homo sapiens, UniProt Q07817).
T2 construct: GST
Description: Kd. On the procedure: Table printed on a drawing sheet, Figure 7
The patent's description of the figure: FIG. 7 depicts binding properties to GST-Bcl-XL of SP-1 and SP-35 peptidomimetic macrocycles.
First copying reader's note: The table stands beside a saturation binding plot (2 µM receptor, 1x PBS + 5 mM CHAPS, 2.5% DMSO) whose legend names GST-Bcl-xL as the receptor for both peptides.
Where the first naming reader finds the target: description_of_the_figure: FIG. 7 depicts binding properties to GST-Bcl-XL of SP-1 and SP-35 peptidomimetic macrocycles.

Data set [5] addresses GST-Bcl-2. Description: Kd. How it is done:
Table printed on a drawing sheet, Figure 8
The patent's description of the figure: FIG. 8 depicts binding properties to GST-Bcl-2 of SP-1 and SP-35 peptidomimetic macrocycles.
First copying reader's note: The Kd values belong to the plot beside the table, titled 'Saturation Binding Curves vs. 2 µM Receptor, 1x PBS + 5 mM CHAPS, 2.5% DMSO', whose legend names the receptor as GST-Bcl-2.
Where the first naming reader finds the target: description_of_the_figure: FIG. 8 depicts binding properties to GST-Bcl-2 of SP-1 and SP-35 peptidomimetic macrocycles.
This is another data set of the same source.

SMILES strings stand for the structures. Read-outs that look alike come from different tables or passages of the source. Starred links: 1 amine or outer side, 2 acyl side, 3 side chain; linkers in the order of their positions; H or OH if unused. Positions of bridges follow the written chain, without caps; N, C: chain ends. Non-standard residues stand in square brackets, D forms with d. Residues, ends and D or L forms follow the SMILES beside them. Nle(6-ylidene) = O=C([C@H](CCCC=[*:3])N[*:1])[*:2]; Nle = CCCC[C@H](N)C(=O)O

T1 sequence (Q07817 whole entry, species assumed): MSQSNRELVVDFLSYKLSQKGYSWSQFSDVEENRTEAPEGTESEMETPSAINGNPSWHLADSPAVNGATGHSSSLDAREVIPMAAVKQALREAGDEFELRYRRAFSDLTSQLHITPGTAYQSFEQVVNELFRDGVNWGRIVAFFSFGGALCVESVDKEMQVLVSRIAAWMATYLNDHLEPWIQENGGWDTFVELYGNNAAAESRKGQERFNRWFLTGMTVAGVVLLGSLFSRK
T2 sequence (Q07817 whole entry, looked up): as the sequence (Q07817 whole entry, species assumed) above

A word on the Kd: it is a measure of binding affinity in units of concentration. Read a low Kd as a tighter complex. As usually defined, the Vss is a proportionality between amount in the body and measured concentration, not a real space. High values mean wide distribution into tissue, low ones little distribution into tissue. In general, Vz refers to a proportionality between amount in the body and measured concentration, not a real space. Usually Cmax stands for the highest concentration seen after dosing. Broadly, the MRT is the average time that molecules of a dose stay in the body. On GST-Bcl-2 [1], `CC[C@H](C)[C@H](NC(C)=O)C(=O)N[C@@H](Cc1c[nH]c2ccccc12)C(=O)N[C@H](C(=O)N[C@@H](C)C(=O)N[C@@H](CCC(N)=O)C(=O)N[C@@H](CCC(=O)O)C(=O)N[C@@H](CC(C)C)C(=O)N[C@@H](CCCNC(=N)N)C(=O)N[C@@]1(C)CCCC=CCCC[C@@](C)(C(=O)N[C@@H](Cc2ccccc2)C(=O)N[C@@H](CC(N)=O)C(=O)N[C@@H](C)C(=O)N[C@@H](Cc2ccc(O)cc2)C(=O)N[C@@H](Cc2ccc(O)cc2)C(=O)N[C@@H](C)C(=O)N[C@@H](CCCNC(=N)N)C(=O)N[C@@H](CCCNC(=N)N)C(N)=O)NC(=O)[C@H](CC(=O)O)NC(=O)CNC(=O)[C@H]([C@@H](C)CC)NC1=O)[C@@H](C)CC` [SP-4, Ac-IWIAQELR$IGD$FNAYYARR-NH2] registered a Kd of 26 nM. On GST-Mcl-1, the Kd was 7 nM. In data set [2], the “AUC,inf” value is 38000 ng·h/mL, the “Cl” value came out at 1.37 mL/min/kg, the “Vss” value was 0.263 L/kg and the “Vz” value was 0.728 L/kg. In data set [2] (rat, in vivo, iv), this molecule yielded a Cmax of 18100 ng/mL and an MRT of 3.1 h. Further, at Bcl-xL, the “detection of the protein-ligand complex by ESI-MS after size-exclusion chromatography” value is reported as “detection of the protein-ligand complex”.
For orientation: half-life means how long it takes for the measured level to halve. A high value points to slow decline. `CCCC[C@H](NC(=O)[C@@H]1CCCC=CCCC[C@H](NC(=O)[C@H](C)NC(=O)[C@H](CC(C)C)NC(=O)[C@H](Cc2c[nH]cn2)NC(=O)[C@H](CCCNC(=N)N)NC(=O)[C@H](C)NC(=O)[C@@H](NC(=O)[C@H](CC(N)=O)NC(=O)[C@H](CCCNC(=N)N)NC(=O)[C@@H](NC(=O)[C@@H](NC(=O)[C@H](CC(=O)O)NC(C)=O)[C@@H](C)CC)[C@@H](C)CC)[C@@H](C)CC)C(=O)N[C@@H](C(C)C)C(=O)NCC(=O)N[C@@H](CC(=O)O)C(=O)N1)C(=O)N[C@@H](CC(=O)O)C(=O)N[C@@H](CCCNC(=N)N)C(=O)N[C@@H](CO)C(=O)N[C@H](C(N)=O)[C@@H](C)CC` [SP-35, Ac-DIIRNIARHLA#VGD#NleDRSI-NH2] (Ac-DIIRNIARHLA[Nle(6-ylidene)]VGD[Nle(6-ylidene)][Nle]DRSI-NH2; staple 12-16): in data set [3], the “K1 min^-1” value was found to be 0.15 min⁻¹, the “K2 min^-1” value worked out at 0.0430 min⁻¹, the “half-life^1” value was found to be 4.6 min and the “half-life^2” value stood at 0.267 h. Besides, in data set [4], the “AUC,inf” value is 15400 ng·h/mL, the “Cl” value amounted to 3.25 mL/min/kg, the “Vss” value worked out at 0.132 L/kg and the “Vz” value amounted to 2.025 L/kg. In data set [4] (rat, in vivo, iv), the Cmax stood at 32200 ng/mL, the MRT was 0.68 h and the half-life was 2.1 h. This molecule gave a Kd on GST-Bcl-XL greater than 10000 nM. Further, the Kd on GST-Bcl-2 [5] is greater than 10000 nM.
